Where “and” joins values, the source holds several entries; their conditions need not be identical. Equal entries are not always repeated.
Tests used:
[1] = molecular target: T1, CAIX (Homo sapiens, UniProt Q16790); test: fluorescent thermal shift assay (FTSA), CAIX; type: binding; conditions: for ΔGobs CAIX: pH 7
[2] = molecular target: CAXIV (Homo sapiens, UniProt Q9ULX7); test: fluorescent thermal shift assay (FTSA), CAXIV; type: binding; conditions: 37 °C; for ΔGintr CAXIV: converted from Kd_intr, independent of pH; for ΔGobs CAXIV: converted from Kd_obs, pH 7.0, FTSA
[3] = molecular target: CAXIII (Homo sapiens, UniProt Q8N1Q1); test: fluorescent thermal shift assay (FTSA), CAXIII; type: binding; conditions: 37 °C; for ΔGintr CAXIII: converted from Kd_intr, independent of pH; for ΔGobs CAXIII: converted from Kd_obs, pH 7.0, FTSA
[4] = 37 °C
[5] = molecular target: CAIII (Homo sapiens, UniProt P07451); test: fluorescent thermal shift assay (FTSA), CAIII; type: binding; conditions: 37 °C; for ΔGobs CAIII: converted from Kd_obs, pH 7.0, FTSA; for ΔGintr CAIII: converted from Kd_intr, independent of pH
[6] = molecular target: CAII (Homo sapiens, UniProt P00918); test: fluorescent thermal shift assay (FTSA), CAII; type: binding; conditions: 37 °C; for ΔGintr CAII: converted from Kd_intr, independent of pH; for ΔGobs CAII: converted from Kd_obs, pH 7.0, FTSA
[7] = molecular target: CAVII (Homo sapiens, UniProt P43166); test: fluorescent thermal shift assay (FTSA), CAVII; type: binding; conditions: 37 °C; for ΔGintr CAVII: converted from Kd_intr, independent of pH; for ΔGobs CAVII: converted from Kd_obs, pH 7.0, FTSA
[8] = molecular target: CAVB (Homo sapiens, UniProt Q9Y2D0); test: fluorescent thermal shift assay (FTSA), CAVB; type: binding; conditions: 37 °C; for ΔGintr CAVB: converted from Kd_intr, independent of pH; for ΔGobs CAVB: converted from Kd_obs, pH 7.0, FTSA
[9] = molecular target: CAVA (Homo sapiens, UniProt P35218); test: fluorescent thermal shift assay (FTSA), CAVA; type: binding; conditions: 37 °C; for ΔGintr CAVA: converted from Kd_intr, independent of pH; for ΔGobs CAVA: converted from Kd_obs, pH 7.0, FTSA
[10] = molecular target: T2, CAXII (Homo sapiens, UniProt O43570); conditions: for -TΔSintr CAXII / ΔHintr CAXII: intrinsic, 37 °C; for ΔHintr CAXII: independent of pH and buffer; for ΔHobs CAXII: observed, sodium phosphate buffer pH 7.0, 37 °C, ITC
[11] = determination of pKa of the sulfonamide group by UV-VIS spectra at various pH; type: physicochemical; conditions: for f RSO2NH-, fraction of deprotonated sulfonamide: at pH 7.0, calculated from pKa; for pKa: calculated from spectra at various pH, 37 °C
[12] = molecular target: CAVI (Homo sapiens, UniProt P23280); test: fluorescent thermal shift assay (FTSA), CAVI; type: binding; conditions: 37 °C; for ΔGobs CAVI: converted from Kd_obs, pH 7.0, FTSA; for ΔGintr CAVI: converted from Kd_intr, independent of pH
[13] = molecular target: CAIV (Homo sapiens, UniProt P22748); test: fluorescent thermal shift assay (FTSA), CAIV; type: binding; conditions: 37 °C; for ΔGintr CAIV: converted from Kd_intr, independent of pH; for ΔGobs CAIV: converted from Kd_obs, pH 7.0, FTSA
[14] = molecular target: CAI (Homo sapiens, UniProt P00915); test: fluorescent thermal shift assay (FTSA), CAI; type: binding; conditions: 37 °C; for ΔGintr CAI: converted from Kd_intr, independent of pH; for ΔGobs CAI: converted from Kd_obs, pH 7.0, FTSA
[15] = solubility observed visually and in absorption spectra; type: physicochemical; design: key: low solubility, LS
[16] = molecular target: T2, CAXII; test: fluorescent thermal shift assay (FTSA), CAXII; type: binding; conditions: 37 °C; for ΔGintr CAXII: converted from Kd_intr, independent of pH; for ΔGobs CAXII: converted from Kd_obs, pH 7.0, FTSA
[17] = molecular target: T1, CAIX
[18] = molecular target: T3, mimic-CAIX (mutant of CAII: A65S, N67Q, I91L, F130V, V134L, L203A) (Homo sapiens, UniProt P00918, A65S/F130V/I91L/L203A/N67Q/V134L)
[19] = molecular target: T3, mimic-CAIX (mutant of CAII: A65S, N67Q, I91L, F130V, V134L, L203A); conditions: intrinsic, calculated using pKa_CAZn(II)H2O of CAII, 37 °C
[20] = observed, sodium phosphate buffer pH 7.0, 37 °C, ITC

CAXIII, sequence (Q8N1Q1 whole entry): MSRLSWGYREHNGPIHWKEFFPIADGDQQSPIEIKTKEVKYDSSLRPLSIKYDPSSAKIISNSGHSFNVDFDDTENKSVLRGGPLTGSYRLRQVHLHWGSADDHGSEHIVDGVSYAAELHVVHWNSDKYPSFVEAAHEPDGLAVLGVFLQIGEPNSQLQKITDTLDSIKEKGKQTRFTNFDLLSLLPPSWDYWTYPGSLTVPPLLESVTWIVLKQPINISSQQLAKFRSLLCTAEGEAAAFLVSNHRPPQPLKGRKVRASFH
CAVI, sequence (P23280 18-308): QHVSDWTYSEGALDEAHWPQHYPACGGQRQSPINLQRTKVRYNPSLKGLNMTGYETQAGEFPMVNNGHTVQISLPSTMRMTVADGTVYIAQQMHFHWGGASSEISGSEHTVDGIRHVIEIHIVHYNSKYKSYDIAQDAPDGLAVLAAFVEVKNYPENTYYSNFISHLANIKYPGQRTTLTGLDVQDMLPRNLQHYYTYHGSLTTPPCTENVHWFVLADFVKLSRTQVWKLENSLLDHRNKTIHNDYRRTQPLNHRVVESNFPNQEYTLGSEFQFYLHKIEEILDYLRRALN
CAVB, sequence (Q9Y2D0 34-317): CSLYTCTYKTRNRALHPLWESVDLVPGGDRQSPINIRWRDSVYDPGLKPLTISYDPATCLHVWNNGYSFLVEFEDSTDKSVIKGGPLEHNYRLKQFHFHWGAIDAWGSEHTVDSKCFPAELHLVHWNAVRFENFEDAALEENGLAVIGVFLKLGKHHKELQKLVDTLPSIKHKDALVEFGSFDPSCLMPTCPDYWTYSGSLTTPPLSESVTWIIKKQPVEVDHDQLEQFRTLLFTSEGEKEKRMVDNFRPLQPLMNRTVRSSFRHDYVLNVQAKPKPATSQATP
CAIII, sequence (P07451 whole entry): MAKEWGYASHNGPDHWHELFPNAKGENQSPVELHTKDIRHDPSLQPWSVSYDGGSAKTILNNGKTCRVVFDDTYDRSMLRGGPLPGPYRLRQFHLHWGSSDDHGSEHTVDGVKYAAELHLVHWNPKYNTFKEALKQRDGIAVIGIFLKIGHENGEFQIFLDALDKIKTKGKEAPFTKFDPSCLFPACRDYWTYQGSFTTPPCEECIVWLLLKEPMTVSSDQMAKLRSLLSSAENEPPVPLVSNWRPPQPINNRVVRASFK
CAVA, sequence (P35218 39-305): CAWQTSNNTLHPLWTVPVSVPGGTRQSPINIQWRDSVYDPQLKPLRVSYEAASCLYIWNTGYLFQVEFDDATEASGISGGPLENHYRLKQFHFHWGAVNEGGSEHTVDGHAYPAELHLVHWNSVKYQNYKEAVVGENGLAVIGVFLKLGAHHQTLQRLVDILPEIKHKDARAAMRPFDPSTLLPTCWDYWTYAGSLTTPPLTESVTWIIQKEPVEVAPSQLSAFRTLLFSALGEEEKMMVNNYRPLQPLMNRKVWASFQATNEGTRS
CAI, sequence (P00915 whole entry): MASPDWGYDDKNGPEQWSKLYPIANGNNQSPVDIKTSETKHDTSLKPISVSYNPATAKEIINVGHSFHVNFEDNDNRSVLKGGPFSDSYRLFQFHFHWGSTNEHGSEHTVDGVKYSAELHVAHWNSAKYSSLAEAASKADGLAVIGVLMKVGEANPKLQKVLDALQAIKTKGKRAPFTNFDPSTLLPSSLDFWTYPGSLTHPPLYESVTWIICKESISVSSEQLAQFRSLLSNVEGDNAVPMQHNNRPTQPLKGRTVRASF
T2 sequence (O43570 25-354): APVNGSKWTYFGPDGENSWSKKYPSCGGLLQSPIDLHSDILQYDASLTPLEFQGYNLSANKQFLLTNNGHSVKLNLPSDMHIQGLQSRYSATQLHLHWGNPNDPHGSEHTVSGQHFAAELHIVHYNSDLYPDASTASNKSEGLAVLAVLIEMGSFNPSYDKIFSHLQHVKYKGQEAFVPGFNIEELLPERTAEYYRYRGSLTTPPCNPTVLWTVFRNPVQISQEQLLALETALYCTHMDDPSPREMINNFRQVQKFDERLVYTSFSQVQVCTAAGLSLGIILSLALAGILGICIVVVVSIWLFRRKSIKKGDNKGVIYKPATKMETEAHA
CAIV, sequence (P22748 19-312): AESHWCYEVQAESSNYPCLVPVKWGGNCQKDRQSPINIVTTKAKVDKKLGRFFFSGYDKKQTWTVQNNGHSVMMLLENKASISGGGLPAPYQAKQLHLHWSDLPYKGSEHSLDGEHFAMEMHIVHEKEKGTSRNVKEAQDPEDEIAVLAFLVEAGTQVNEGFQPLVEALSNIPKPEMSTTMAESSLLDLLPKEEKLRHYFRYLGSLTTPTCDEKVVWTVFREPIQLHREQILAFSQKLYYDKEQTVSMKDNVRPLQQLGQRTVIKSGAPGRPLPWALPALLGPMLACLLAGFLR
CAVII, sequence (P43166 whole entry): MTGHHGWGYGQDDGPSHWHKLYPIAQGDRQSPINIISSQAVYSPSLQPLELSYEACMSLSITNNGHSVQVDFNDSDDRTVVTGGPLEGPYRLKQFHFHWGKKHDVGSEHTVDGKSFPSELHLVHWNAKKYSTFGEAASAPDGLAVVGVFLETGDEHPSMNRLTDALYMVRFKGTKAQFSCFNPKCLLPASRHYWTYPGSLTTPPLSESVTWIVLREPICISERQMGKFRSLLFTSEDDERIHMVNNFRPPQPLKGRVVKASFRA
CAXIV, sequence (Q9ULX7 16-337): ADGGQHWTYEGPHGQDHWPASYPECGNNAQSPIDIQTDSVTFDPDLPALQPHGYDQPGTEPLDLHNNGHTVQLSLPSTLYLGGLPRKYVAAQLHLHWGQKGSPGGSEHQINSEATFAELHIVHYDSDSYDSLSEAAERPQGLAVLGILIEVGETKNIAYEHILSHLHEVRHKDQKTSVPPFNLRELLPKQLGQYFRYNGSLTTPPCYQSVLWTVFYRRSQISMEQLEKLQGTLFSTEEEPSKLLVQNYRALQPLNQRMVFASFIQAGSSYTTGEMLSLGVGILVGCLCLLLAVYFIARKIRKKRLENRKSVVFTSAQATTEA

Row | Compound | ΔGintr CAIX [1] [kcal/mol] | ΔGobs CAIX [1] [kcal/mol] | ΔGintr CAXIV [2] [kcal/mol] | ΔGobs CAXIV [2] [kcal/mol] | ΔGintr CAXIII [3] [kcal/mol] | ΔGobs CAXIII [3] [kcal/mol] | ΔGobs CAIII [5] [kcal/mol] | ΔGintr CAII [6] [kcal/mol] | ΔGobs CAII [6] [kcal/mol] | ΔGintr CAVII [7] [kcal/mol] | ΔGobs CAVII [7] [kcal/mol] | ΔGintr CAVB [8] [kcal/mol] | ΔGobs CAVB [8] [kcal/mol] | ΔGintr CAVA [9] [kcal/mol] | ΔGobs CAVA [9] [kcal/mol] | f RSO2NH-, fraction of deprotonated sulfonamide [11] | ΔGobs CAVI [12] [kcal/mol] | ΔGintr CAIV [13] [kcal/mol] | ΔGobs CAIV [13] [kcal/mol] | ΔGintr CAI [14] [kcal/mol] | other results
1 | COC(=O)c1cc(S(N)(=O)=O)c(Cl)cc1SC1CCCCC1 [Compound 5b, Methyl 4-chloro-2-cyclohexylsulfanyl-5-sulfamoylbenzoate] | -15.7 | -11.5 | -15.8 | -11.8 | -14.8 | -11.4 | ≥ -5.26 | -14.8 | -10.9 | -14.9 | -10.9 | -15.5 | -11.7 | -11.3 | -7.65 | 0.4% | -9.49 | -14.4 | -10.2 | -12.6 | Δp_RSO2NH2H, protonation enthalpy of sulfonamide group [4]: -7.96 kcal/mol; -TΔSintr CAXII [10]: -4.76 kcal/mol; ΔHintr CAXII [10]: -10.4 kcal/mol; ΔHobs CAXII [10]: -6.5 kcal/mol; N (ITC, observed fitted parameter) CAXII ([10]; single repeats, pH 7.0, 37 °C, Figure S8): 1.0 and 1.1; pKa [11]: 9.4; ΔGobs CAI [14]: -9.2 kcal/mol
2 | COC(=O)c1cc(S(N)(=O)=O)c(S(=O)(=O)CCc2ccccc2)cc1Cl [Compound 7d, Methyl 2-chloro-4-(2-phenylethylsulfonyl)-5-sulfamoylbenzoate] | -12.1 | -7.34 | ≥ -9.8 | ≥ -5.26 | -10.6 | -6.6 | ≥ -5.26 | ≥ -9.73 | ≥ -5.26 | ≥ -9.8 | ≥ -5.26 | ≥ -9.66 | ≥ -5.26 | ≥ -9.46 | ≥ -5.26 | 0.2% | -5.5 | ≥ -9.99 | ≥ -5.26 | -9.27 | ΔGintr CAIII [5]: ≥ -10.1 kcal/mol; solubility [15]: LS; ΔGintr CAVI [12]: -10.9 kcal/mol; ΔGintr CAXII [16]: -10.9 kcal/mol; ΔGobs CAXII [16]: -6.33 kcal/mol
3 | COC(=O)c1cc(S(N)(=O)=O)c(SC2CCCCC2)cc1Cl [Compound 3b, Methyl 2-chloro-4-(cyclohexylsulfanyl)-5-sulfamoylbenzoate] | -17.9 | -13.5 | -15.5 | -11.2 | -14.1 | -10.3 | -6.24 | -13.6 | -9.37 |  | -9.68 | -11.1 | -7.03 | -9.61 | -5.66 | 0.3% and 0.25% | -9.2 | -13.6 | -9.08 | -10.5 | binding affinity, times stronger to CAIX than CAXII [1]: 150 times; native CAIX bound more strongly than mimic-CAIX [1]: 10 fold; -TΔSintr CAIX ([17]; intrinsic, 37 °C): -10.8 kcal/mol; ΔHintr CAIX ([17]; intrinsic, 37 °C, independent of pH and buffer): -7.15 kcal/mol; ΔHobs CAIX [17, 20]: -2.51 kcal/mol; Δp_RSO2NH2H, protonation enthalpy of sulfonamide group [4]: -8.53 kcal/mol; ΔGintr CAIII [5]: -10.8 kcal/mol; ΔHintr mimic CAIX ([18]; intrinsic, 37 °C, calculated using protonation enthalpy of CAII): -7.46 kcal/mol; ΔHobs mimic CAIX [18, 20]: -2.39 kcal/mol; -TΔSintr CAXII [10]: -3.42 kcal/mol; ΔHintr CAXII [10]: -11.5 kcal/mol; ΔHobs CAXII [10]: -6.96 kcal/mol; pKa [11]: 9.6; ΔGintr CAVI [12]: -14.4 kcal/mol; ΔGobs CAI [14]: -6.79 kcal/mol; ΔGintr mimic-CAIX [19]: -16.1 kcal/mol
4 | COC(=O)c1cc(S(N)(=O)=O)c(SCCc2ccccc2)cc1Cl [Compound 3d, Methyl 2-chloro-4-[(2-phenylethyl)sulfanyl]-5-sulfamoylbenzoate] | -15.7 | -11.2 | -14.7 | -10.4 |  | -10.5 |  | -13.8 | -9.61 | -14.2 | -9.94 | -11.2 | -7.1 | -9.54 | -5.59 | 0.3% and 0.25% | -8.8 |  |  | -10.7 | Δp_RSO2NH2H, protonation enthalpy of sulfonamide group [4]: -9.8 kcal/mol; ΔHintr CAXII [10]: -12 kcal/mol; ΔHobs CAXII [10]: -6.19 kcal/mol; pKa [11]: 9.6; ΔGintr CAVI [12]: -14 kcal/mol; ΔGobs CAI [14]: -6.93 kcal/mol
5 | COC(=O)c1cc(S(N)(=O)=O)c(S(=O)(=O)Cc2ccccc2)cc1Cl [Compound 7c, Methyl 4-benzylsulfonyl-2-chloro-5-sulfamoylbenzoate] | -13.4 | -8.65 | -11.9 | -7.34 | -9.51 | -5.47 | ≥ -5.26 | ≥ -9.78 | ≥ -5.28 | ≥ -9.8 | ≥ -5.26 | ≥ -9.66 | ≥ -5.26 | ≥ -9.46 | ≥ -5.26 | 0.2% | -5.5 | -12.2 | -7.43 | ≥ -9.27 | ΔGintr CAIII [5]: ≥ -10.1 kcal/mol; solubility [15]: LS; ΔGintr CAVI [12]: -10.9 kcal/mol; ΔGintr CAXII [16]: -11.9 kcal/mol; ΔGobs CAXII [16]: -7.34 kcal/mol; ΔGobs CAI [14]: ≥ -5.26 kcal/mol
6 | COC(=O)c1cc(S(N)(=O)=O)c(Br)cc1Sc1ccccc1 [Compound 6a, Methyl 4-bromo-2-(phenylsulfanyl)-5-sulfamoylbenzoate] | -15.5 | -11.4 | -15.2 | -11.2 | -14.5 | -11.1 | ≥ -5.26 | -14 | -10.1 | -13.5 | -9.46 | -14.5 | -10.7 | -9.44 | -5.76 | 0.4% | -9.06 | -14.7 | -10.5 | -11.4 | ΔGintr CAIII [5]: ≥ -9.54 kcal/mol; solubility [15]: LS; ΔGintr CAVI [12]: -13.9 kcal/mol; ΔGintr CAXII [16]: -14.9 kcal/mol; ΔGobs CAXII [16]: -10.9 kcal/mol; ΔGobs CAI [14]: -7.96 kcal/mol

From publication PMC8745178, “Methyl 2-Halo-4-Substituted-5-Sulfamoyl-Benzoates as High Affinity and Selective Inhibitors of Carbonic Anhydrase IX” (International Journal of Molecular Sciences, 2021)
